Results taken from paper PMC10295463, “Computational Characterization of the Binding Properties of the HIV1-Neutralizing Antibody PG16 and Design of PG16-Derived CDRH3 Peptides” (Biology, 2023).
Bridge positions count the residues as written; N and C are the ends. Square brackets hold non-standard residues; d marks the D form. Peptide text beside a SMILES is read from it. * marks the point of attachment. Biotin = O=C1N[C@H]2[C@H](CS[C@H]2CCCCC(=O)*)N1; pY = N[C@@H](Cc1ccc(OP(=O)(O)O)cc1)C(=O)O; AEEA = NCCOCCOCC(=O)O

Target: T1, gp120 HxBc2 (Human immunodeficiency virus type 1 group M subtype B, UniProt P04578)
T1 construct: incubated for 3 h with gp120 HxBc2 (ImmuneTech); purchased ImmuneTech
Experiment: Peptide binding assay (ELISA): gp120 binding to immobilized biotinylated peptide
Set-up: species or system HIV-1
Settings: same ELISA, gp120 up to 16.6 nM
Experimental: High-binding Corning Costar microtiter half-area plates were coated with Neutravidin (Thermo Scientific, Dreieich, Germany, 4.0 μ g /mL) in 0.1 M carbonate buffer pH 9.6, overnight at 4 ^∘C . After the blocking of unspecific binding with 1% BSA in 0.1 M phosphate buffer pH 7.2, for 1 h , the neutravidin-coated plate was incubated with 2 μ m biotinylated peptide for 2 h . Plates were then incubated for 3 h with gp120 HxBc2 (ImmuneTech, New York, NY, USA) at three-fold serial dilutions, starting at 16.6 nM. Bound gp120 was detected with sheep anti-gp120 (Aalto Bio Reagents, Dublin, Ireland) 0.1 μ g /mL) for 1 h , followed by rabbit anti-sheep-HRP conjugate (Jackson Immuno Research, Ely, UK, 0.1 μ g /mL) for 1 h . All peptides and proteins were diluted in 0.1 M phosphate buffer pH 7.2, containing 0.01% Tween. Plates were developed with OPD ( 1 m g /mL) in the presence of 0.03% H2O2 for approximately 10 min in the dark. After the reaction was stopped with 2 M H2SO4, absorbance was read at 492 n m . The absorbance of the blanks (samples without peptide) was subtracted. All data points present means of duplicates. Curves were fitted and EC50 values calculated using the program Origin 2021 (OriginLab Corporation, Northampton, MA, USA).

Compound: CC[C@H](C)[C@@H]1NC(=O)[C@@H](NC(=O)CNC(=O)COCCOCCNC(=O)CCCC[C@@H]2SC[C@@H]3NC(=O)N[C@@H]32)CSSC[C@@H](C(=O)N[C@@H](Cc2ccc(O)cc2)C(=O)N[C@@H](Cc2ccc(OP(=O)(O)O)cc2)C(=O)N[C@@H](CC(=O)O)C(=O)N[C@@H](Cc2ccccc2)C(=O)N[C@@H](CC(N)=O)C(=O)N[C@@H](CC(=O)O)C(=O)NCC(N)=O)NC(=O)[C@H](C(C)C)NC(=O)[C@H](CC(=O)O)NC(=O)[C@H](CC(=O)O)NC(=O)[C@H](Cc2c[nH]cn2)NC(=O)[C@H](Cc2c[nH]c3ccccc23)NC1=O [LW40.2] ({Biotin-AEEA}-GCIWHDDVCY[pY]DFNDG-NH2; disulfide 2-9)
- binding of gp120 to the peptide (in words): no detectable binding at all
